Measured values from patent US7396939B2, “3-cyclopropyl-4-(3-amino-2-methylbenzoyl)pyrazoles and their use as herbicides” (Bayer CropScience GmbH, priority 2004, dated 2008).
Where two headings read alike, the source gives them in different places.

What was measured:
Assay type in all cases: in vivo
Zea mays (corn) (ZEAMX) [1] = experiment: Post-emergence damage of crop plants; conditions: post-emergence application
Description: (§1) Seeds of monocotyledonous and dicotyledonous harmful plants and seeds of corn, soybean and wheat are placed into sandy loam in cardboard pots, covered with soil and grown in the greenhouse under good growth conditions. Two to three weeks after sowing the harmful plants and the crop plants are treated in the three-leaf stage. The compounds according to the invention and the prior-art compounds, formulated as wettable powders or emulsion concentrates, are sprayed onto the green plant parts at an application rate of 600 to 800 l of water/ha (converted) in one of the dosages given in tables 1 to 10. After the test plants have remained in the greenhouse under optimum growth conditions for 3 to 4 weeks, the effect of the compounds is rated in comparison to compounds disclosed in the prior art.

Viola tricolor (VIOTR) = experiment: Post-emergence action against harmful plants; conditions: post-emergence application, 80 g of a.i./ha, Comparative Table 1
Description: as §1

[2] = tested on: Echinochloa crus galli (ECHCG); experiment: Post-emergence action against harmful plants; conditions: post-emergence application
Description: as §1

[3] = tested on: Matricaria inodora (MATIN); experiment: Post-emergence action against harmful plants; conditions: for pest or weed control at 80 g/ha / pest or weed control at 320 g/ha: Tripleurospermum inodorum, read-out: Herbicidal action MATIN; for pest or weed control at 320 g/ha / Herbicidal action MATIN: 320 g of a.i./ha; for Herbicidal action MATIN: Comparative Table 10
Description: as §1

[4] = tested on: Digitaria sanguinalis (DIGSA); experiment: Post-emergence action against harmful plants; conditions: post-emergence application, 80 g of a.i./ha, Comparative Table 1
Description: as §1

[5] = tested on: Oryza sativa (rice) (ORYSA); experiment: Damage of rice under paddy rice conditions; conditions: post-emergence application
Description: (§2) Rice plants and harmful plants typical in rice crops are grown in the greenhouse under paddy rice conditions (water level: 2-3 cm). After the treatment with the compounds according to the invention and the prior-art compounds, the test plants are placed in the greenhouse under optimum growth conditions and kept like this during the entire test. About three weeks after the application, evaluation is carried out by visual scoring of the damage to the plants.

[6] = tested on: Glycine max (soybean) (GLXMA); experiment: Post-emergence damage of crop plants; conditions: post-emergence application
Description: as §1

Galium aparine (GALAP) [7] = experiment: Post-emergence action against harmful plants; conditions: post-emergence application
Description: as §1

Veronica persica (VERPE) = experiment: Post-emergence action against harmful plants; conditions: post-emergence application
Description: as §1

Stellaria media (STEME) = experiment: Post-emergence action against harmful plants; conditions: post-emergence application, 80 g of a.i./ha
Description: as §1

Galium aparine (GALAP) [8] = experiment: Pre-emergence action against harmful plants; conditions: pre-emergence application, 320 g of a.i./ha, Comparative Table 7
Text: (§3) Seeds of monocotyledonous and dicotyledonous harmful plants and seeds of corn, soybean and wheat are placed into sandy loam in cardboard pots and covered with soil. The compounds according to the invention and the prior-art compounds, formulated as wettable powders or emulsion concentrates, are then applied to the surface of the covering soil as an aqueous suspension or emulsion at an application rate of 600 to 800 l of water/ha (converted) in one of the dosages given in tables 1 to 10. After the treatment, the pots are placed in a greenhouse and kept under good growth conditions for the harmful plants and crop plants. Visual scoring of plant or emergence damage is carried out after the test plants have emerged after an experimental period of 3 to 4 weeks.

Zea mays (corn) (ZEAMX) [9] = experiment: Pre-emergence damage of crop plants; conditions: pre-emergence application, 320 g of a.i./ha, Comparative Table 7
Text: as §3

Avena fatua (AVEFA) = experiment: Post-emergence action against harmful plants; conditions: post-emergence application, 320 g of a.i./ha, Comparative Table 8
Description: as §1

[10] = tested on: Pharbitis purpureum (PHBPU); experiment: Post-emergence action against harmful plants; conditions: post-emergence application, 320 g of a.i./ha
Description: as §1

Setaria viridis (SETVI) = experiment: Action against harmful plants in the rice test; conditions: post-emergence application, 320 g of a.i./ha, Comparative Table 5
Description: as §2

[11] = tested on: Triticum aestivum (wheat) (TRZAS); experiment: Post-emergence damage of crop plants; conditions: post-emergence application, 320 g of a.i./ha, Comparative Table 6
Description: as §1

[12] = 80 g of a.i./ha, Comparative Table 1
[13] = post-emergence application, 80 g of a.i./ha, Comparative Table 1
[14] = 20 g of a.i./ha, Comparative Table 2
[15] = 80 g of a.i./ha, Comparative Table 3
[16] = post-emergence application, 80 g of a.i./ha, Comparative Table 3
[17] = 320 g of a.i./ha, Comparative Table 8
[18] = post-emergence application, Comparative Table 8
[19] = 320 g of a.i./ha, Comparative Table 10
[20] = 320 g of a.i./ha, Comparative Table 9
[21] = post-emergence application, Comparative Table 9
[22] = 320 g of a.i./ha, Comparative Table 5
[23] = 320 g of a.i./ha, Comparative Table 6
[24] = post-emergence application, Comparative Table 6
[25] = 80 g of a.i./ha, Comparative Table 4

Compound: CCCNc1c(S(C)(=O)=O)ccc(C(=O)c2c(C3CC3)nn(C)c2O)c1C [No. 3]
- Damage to the crop plants ZEAMX (Zea mays (corn) (ZEAMX) [1]; [12]): 30%
- Herbicidal action VIOTR (Viola tricolor (VIOTR)): 90%
- Herbicidal action ECHCG [2, 12]: 90%
- pest or weed control at 80 g/ha [3, 13]: 70%
- Herbicidal action DIGSA [4]: 90%

Compound: CCCCNc1c(S(C)(=O)=O)ccc(C(=O)c2c(C3CC3)nn(C)c2O)c1C [No. 4]
- Damage to the crop plants ORYSA [5, 14]: 0%
- Damage to the crop plants GLXMA [6, 14]: 0%
- Herbicidal action GALAP (Galium aparine (GALAP) [7]; [14]): 80%
- Herbicidal action VERPE (Veronica persica (VERPE); [14]): 60%

Compound: C=CCNc1c(S(C)(=O)=O)ccc(C(=O)c2c(C3CC3)nn(C)c2O)c1C [No. 5]
- Damage to the crop plants ZEAMX (Zea mays (corn) (ZEAMX) [1]; [15]): 10%
- Damage to the crop plants GLXMA [6, 15]: 0%
- pest or weed control at 80 g/ha [3, 16]: 50%
- Herbicidal action STEME (Stellaria media (STEME); Comparative Table 3): 100%
- Herbicidal action GALAP (Galium aparine (GALAP) [7]; [15]): 80%

Compound: COCCNc1c(S(C)(=O)=O)ccc(C(=O)c2c(C3CC3)nn(C)c2O)c1C [No. 9]
- Herbicidal action GALAP (Galium aparine (GALAP) [8]): 80%
- Damage to the crop plants ZEAMX (Zea mays (corn) (ZEAMX) [1]; [17]): 0%
- Damage to the crop plants GLXMA [6, 17]: 20%
- Damage to the crop plants ZEAMX (Zea mays (corn) (ZEAMX) [9]): 0%
- pest or weed control at 320 g/ha [3, 18]: 80%
- Herbicidal action AVEFA (Avena fatua (AVEFA)): 70%

Compound: CCOCCNc1c(S(C)(=O)=O)ccc(C(=O)c2c(C3CC3)nn(C)c2O)c1C [No. 10]
- Damage to the crop plants ZEAMX (Zea mays (corn) (ZEAMX) [1]; [19]): 0%
- Damage to the crop plants GLXMA [6, 20]: 20%
- Damage to the crop plants GLXMA [6, 19]: 20%
- Herbicidal action ECHCG [2, 19]: 100%
- pest or weed control at 320 g/ha [3, 21]: 100%
- Herbicidal action MATIN ([3]; post-emergence application): 100%
- Herbicidal action PHBPU ([10]; Comparative Table 9): 100%
- Herbicidal action PHBPU ([10]; Comparative Table 10): 100%
- Herbicidal action VERPE (Veronica persica (VERPE); [20]): 100%
- Herbicidal action VERPE (Veronica persica (VERPE); [19]): 100%

Compound: Cc1c(C(=O)c2c(C3CC3)nn(C)c2O)ccc(S(C)(=O)=O)c1N1CCCC1 [No. 14]
- Damage to the crop plants ORYSA [5, 22]: 10%
- Herbicidal action SETVI (Setaria viridis (SETVI)): 100%
- Damage to the crop plants GLXMA [6, 23]: 10%
- Damage to the crop plants TRZAS [11]: 0%
- Herbicidal action ECHCG [2, 23]: 80%
- pest or weed control at 320 g/ha [3, 24]: 50%

Compound: Cc1c(C(=O)c2c(C3CC3)nn(C)c2O)ccc(S(C)(=O)=O)c1N1CCCCC1 [No. 15]
- Damage to the crop plants ZEAMX (Zea mays (corn) (ZEAMX) [1]; [25]): 0%
- pest or weed control at 80 g/ha ([3]; post-emergence): 60%
- Herbicidal action STEME (Stellaria media (STEME); Comparative Table 4): 70%

Compound: CCOCCNc1c(S(C)(=O)=O)ccc(C(=O)c2c(C)nn(C)c2O)c1C [S1]
- Damage to the crop plants GLXMA [6, 20]: 90%
- pest or weed control at 320 g/ha [3, 21]: 60%
- Herbicidal action PHBPU ([10]; Comparative Table 9): 90%
- Herbicidal action VERPE (Veronica persica (VERPE); [20]): 100%

Compound: CCCNc1c(S(C)(=O)=O)ccc(C(=O)c2c(C)nn(C)c2O)c1C [S2]
- Damage to the crop plants ZEAMX (Zea mays (corn) (ZEAMX) [1]; [12]): 60%
- Herbicidal action VIOTR (Viola tricolor (VIOTR)): 80%
- Herbicidal action ECHCG [2, 12]: 80%
- pest or weed control at 80 g/ha [3, 13]: 30%
- Herbicidal action DIGSA [4]: 80%

Compound: CCCCNc1c(S(C)(=O)=O)ccc(C(=O)c2c(C)nn(C)c2O)c1C [S3]
- Damage to the crop plants ORYSA [5, 14]: 30%
- Damage to the crop plants GLXMA [6, 14]: 20%
- Herbicidal action GALAP (Galium aparine (GALAP) [7]; [14]): 40%
- Herbicidal action VERPE (Veronica persica (VERPE); [14]): 20%

Compound: C=CCNc1c(S(C)(=O)=O)ccc(C(=O)c2c(C)nn(C)c2O)c1C [S4]
- Damage to the crop plants ZEAMX (Zea mays (corn) (ZEAMX) [1]; [15]): 30%
- Damage to the crop plants GLXMA [6, 15]: 50%
- pest or weed control at 80 g/ha [3, 16]: 30%
- Herbicidal action STEME (Stellaria media (STEME); Comparative Table 3): 100%
- Herbicidal action GALAP (Galium aparine (GALAP) [7]; [15]): 80%

Compound: Cc1nn(C)c(O)c1C(=O)c1ccc(S(C)(=O)=O)c(N2CCCCC2)c1C [S5]
- Damage to the crop plants ZEAMX (Zea mays (corn) (ZEAMX) [1]; [25]): 10%
- pest or weed control at 80 g/ha ([3]; post-emergence application, 80 g of a.i./ha, Comparative Table 4): 40%
- Herbicidal action STEME (Stellaria media (STEME); Comparative Table 4): 20%

Compound: CCn1nc(C)c(C(=O)c2ccc(S(C)(=O)=O)c(N3CCCC3)c2C)c1O [S6]
- Damage to the crop plants ORYSA [5, 22]: 20%
- Herbicidal action SETVI (Setaria viridis (SETVI)): 90%
- Damage to the crop plants GLXMA [6, 23]: 20%
- Damage to the crop plants TRZAS [11]: 10%
- Herbicidal action ECHCG [2, 23]: 50%
- pest or weed control at 320 g/ha [3, 24]: 0%

Compound: CCn1nc(C)c(C(=O)c2ccc(S(C)(=O)=O)c(NCCOC)c2C)c1O [S7]
- Herbicidal action GALAP (Galium aparine (GALAP) [8]): 70%
- Damage to the crop plants ZEAMX (Zea mays (corn) (ZEAMX) [1]; [17]): 20%
- Damage to the crop plants ZEAMX (Zea mays (corn) (ZEAMX) [1]; [19]): 20%
- Damage to the crop plants GLXMA [6, 17]: 60%
- Damage to the crop plants GLXMA [6, 19]: 60%
- Damage to the crop plants ZEAMX (Zea mays (corn) (ZEAMX) [9]): 20%
- Herbicidal action ECHCG [2, 19]: 90%
- pest or weed control at 320 g/ha [3, 18]: 70%
- Herbicidal action MATIN ([3]; post-emergence application): 70%
- Herbicidal action AVEFA (Avena fatua (AVEFA)): 50%
- Herbicidal action PHBPU ([10]; Comparative Table 10): 40%
- Herbicidal action VERPE (Veronica persica (VERPE); [19]): 90%
